Test results as given in patent US10376476B2, “Panicein compounds, compositions and uses thereof” (CENTRE NATIONAL DE LA RECHERCHE SCIENTIFIQUE, priority 2014, dated 2019).

How the values were obtained:
[1] = biological target: T1, mutant Patched G509VD513Y (hPtcVXXXY) expressed in yeasts (Homo sapiens, UniProt Q13635, D513Y/G509V); assay: Doxorubicin efflux from yeasts (intracellular dxr fluorescence); type: cell-based; details: hPtc-YXXXG-yeasts (mutant Patched), 10 μM paniceins, 10 min, 5 mM 2-deoxy-D-glucose
T1 construct: MAP; expressed in transfected cells; host or cells: Saccharomyces cerevisiae K699
T1 sequence (Q13635 1-1447 G509V/D513Y): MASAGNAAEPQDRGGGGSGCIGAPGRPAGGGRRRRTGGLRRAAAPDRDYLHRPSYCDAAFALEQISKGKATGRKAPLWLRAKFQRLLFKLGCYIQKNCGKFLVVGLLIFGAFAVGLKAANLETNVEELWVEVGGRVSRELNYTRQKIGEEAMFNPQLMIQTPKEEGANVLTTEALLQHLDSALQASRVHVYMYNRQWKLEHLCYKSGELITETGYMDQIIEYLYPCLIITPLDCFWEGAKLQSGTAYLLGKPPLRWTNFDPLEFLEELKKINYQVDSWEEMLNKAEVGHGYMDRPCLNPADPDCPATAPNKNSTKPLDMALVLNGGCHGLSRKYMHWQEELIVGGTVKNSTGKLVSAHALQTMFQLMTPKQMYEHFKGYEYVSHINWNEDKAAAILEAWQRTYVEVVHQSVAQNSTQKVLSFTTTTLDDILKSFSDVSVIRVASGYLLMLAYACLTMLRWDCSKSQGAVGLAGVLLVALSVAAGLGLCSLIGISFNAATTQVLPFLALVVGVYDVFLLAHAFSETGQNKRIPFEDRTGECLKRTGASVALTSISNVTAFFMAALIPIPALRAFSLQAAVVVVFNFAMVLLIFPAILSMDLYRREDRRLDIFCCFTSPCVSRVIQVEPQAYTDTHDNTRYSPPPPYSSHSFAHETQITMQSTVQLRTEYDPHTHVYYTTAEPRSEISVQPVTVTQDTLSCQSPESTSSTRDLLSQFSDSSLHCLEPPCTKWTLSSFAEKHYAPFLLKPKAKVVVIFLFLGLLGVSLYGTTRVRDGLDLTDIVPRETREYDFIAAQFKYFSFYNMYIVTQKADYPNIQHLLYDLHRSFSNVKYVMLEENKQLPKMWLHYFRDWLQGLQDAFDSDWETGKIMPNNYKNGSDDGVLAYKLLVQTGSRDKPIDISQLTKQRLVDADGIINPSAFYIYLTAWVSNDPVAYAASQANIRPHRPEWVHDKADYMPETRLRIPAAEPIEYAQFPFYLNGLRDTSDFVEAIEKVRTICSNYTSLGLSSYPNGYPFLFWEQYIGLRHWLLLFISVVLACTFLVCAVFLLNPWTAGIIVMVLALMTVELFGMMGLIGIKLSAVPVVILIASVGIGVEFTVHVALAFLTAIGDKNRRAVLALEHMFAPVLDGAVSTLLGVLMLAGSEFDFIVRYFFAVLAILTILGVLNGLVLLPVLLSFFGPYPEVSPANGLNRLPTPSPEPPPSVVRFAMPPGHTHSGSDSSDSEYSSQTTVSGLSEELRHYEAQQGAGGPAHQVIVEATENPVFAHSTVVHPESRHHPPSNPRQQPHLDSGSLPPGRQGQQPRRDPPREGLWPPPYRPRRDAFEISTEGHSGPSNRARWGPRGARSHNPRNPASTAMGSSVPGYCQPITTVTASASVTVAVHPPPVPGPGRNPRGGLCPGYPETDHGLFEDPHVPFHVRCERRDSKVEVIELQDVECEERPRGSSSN
Experimental: (§1) A. Compound P5 inhibits doxorubicin efflux from melanoma cells MeWo and A375. Cells were grown on cover-slips, incubated for 2 hour at 37° C. with 10 μM doxorubicin and quickly rinsed with phosphate buffer (pH 7.4). One cover-slip of each cell line was immediately fixed for doxorubicin charge control. The other cover-slips were incubated with buffer supplemented with DMSO or 10 μM of compound P5 30 min under gentle shaking and immediately fixed. Dxr intracellular fluorescence was visualized by epifluorescence and analyzed using Image J software on more than 30 cells of 3 different fields for each condition. The results were analyzed using the Student t test in which significance is attained at P<0.05 (**: P<0.005, ***: P<0.0005). B. Paniceins inhibit doxorubicin efflux from Patched-expressing yeasts. Yeasts expressing wild-type Patched (hPtc, in black), mutant Patched G509VD513Y (hPtcVXXXY, in grey), and control yeasts (in white) were incubated in buffer supplemented with 5 mM of 2-deoxy-D-glucose and 10 μM dxr for 2 hours at 4° C. After centrifugation and supernatant removing, one sample was immediately fixed for charge control and the other samples were resuspended in buffer containing 5 mM of 2-deoxy-D-glucose supplemented with DMSO or 10 μM of paniceins 10 minutes at 25° C. with gentle shaking. After centrifugation and supernatant removing, samples were fixed and deposited on coverslips for epifluorescence microscopy observation. Dxr intracellular fluorescence quantification was carried out using Image J software on more than 30 yeasts on 3 different fields for each condition. The results were analyzed using the Student t test in which significance is attained at P<0.05 (*).
On yeasts: Yeasts expressing Patched (hPtc), mutant Patched (hPtcG509VD513Y), or control yeasts were washed with cold water, resuspended at an OD600 of 10 in Hepes-NaOH buffer (pH 7.0) supplemented with 5 mM of 2-deoxy-D-glucose, and incubated with 10 μM doxorubicin for 2 hours at 4° C. in the cold room on a rotating wheel protected from light. Yeasts were centrifuged and the supernatant was removed. One sample was immediately fixed with 4% paraformaldehyde for doxorubicin loading control. The other samples were resuspended in Hepes-NaOH buffer (pH 7.0) containing 5 mM of 2-deoxy-D-glucose supplemented with DMSO or 10 μM of paniceins, and incubated 10 minutes at 20° C. with gentle shaking in a Benchmark Multi-therm shaker protected from light. Samples were centrifuged for 1 minute at 18,000 g, supernatants were removed and yeasts were fixed with 4% paraformaldehyde. 10 μL of each sample were deposited on a coverslip and observed by epifluorescence microscopy using an objective 63x and filters for Alexa 594. Quantification of doxorubicin intracellular fluorescence was carried out using Image J software on more than 30 yeasts on 3 different fields for each condition. The results were analyzed using the Student t test in which significance is attained at P <0.05.
In order to see if Paniceins inhibit dxr efflux through Patched inhibition, inventors compared dxr efflux on yeasts over-expressing human Patched and control yeasts. After loading with dxr, yeasts were centrifuged and fixed for dxr loading control (LC), or resuspended in buffer supplemented with DMSO or paniceins for efflux measurements. After 10 min a 20° C., yeasts were collected, fixed and deposited on cover-slips. 2-deoxy-D-glucose was added in buffer during loading and efflux in order to inhibit ATP-binding cassette (ABC) transporters. Dxr fluorescence intensity of at least 30 yeasts was measured for each experiment. FIGS. 6A and 12A show the mean fluorescence intensity of 3 independent experiments. […] This was confirmed using yeasts over-expressing Patched mutant VXXXY. […] Yeasts over-expressing hPtcVXXXY are less resistance to growth inhibition by dxr than yeasts over-expressing wild-type hPtc (Bidet et al., 2012).

control yeasts = assay: as above; type: cell-based, Saccharomyces cerevisiae; details: 10 μM paniceins, 10 min, 5 mM 2-deoxy-D-glucose
Experimental: as §1
On yeasts: Yeasts expressing Patched (hPtc), mutant Patched (hPtcG509VD513Y), or control yeasts were washed with cold water, resuspended at an OD600 of 10 in Hepes-NaOH buffer (pH 7.0) supplemented with 5 mM of 2-deoxy-D-glucose, and incubated with 10 μM doxorubicin for 2 hours at 4° C. in the cold room on a rotating wheel protected from light. Yeasts were centrifuged and the supernatant was removed. One sample was immediately fixed with 4% paraformaldehyde for doxorubicin loading control. […] Quantification of doxorubicin intracellular fluorescence was carried out using Image J software on more than 30 yeasts on 3 different fields for each condition. The results were analyzed using the Student t test in which significance is attained at P <0.05.
In order to see if Paniceins inhibit dxr efflux through Patched inhibition, inventors compared dxr efflux on yeasts over-expressing human Patched and control yeasts. […] Dxr fluorescence intensity of at least 30 yeasts was measured for each experiment. FIGS. 6A and 12A show the mean fluorescence intensity of 3 independent experiments. […]

Compound | Efflux (%) of dxr [1] | Efflux (%) of dxr (control yeasts)
C/C(=C\Cc1cc(O)ccc1O)CCc1c(C)c(O)c(O)c(C=O)c1C [P2, Panicein C] | 39% | 20%
C/C(=C\Cc1cc(O)ccc1O)CCc1c(C)cc(O)c(C=O)c1C [P3, Panicein B3] | 32% | 25%
Cc1cc(O)c(C=O)c(C)c1CCC1(C)C=Cc2cc(O)ccc2O1 (centres unmarked) [P4, Panicein B2] | 38% | 29%
COc1cc(C)c(CC/C(C)=C/Cc2cc(O)ccc2O)c(C)c1C [P5, Panicein A hydroquinone] | 42% | 39%
